Measured values: patent publication US20020161528A1, “Tool for lipophilicity determination in drug discovery basic and neutral compounds” (Pfizer Inc., priority 2001, published 2002)
“And” between values parts separate entries of the source, which are not always exact repeats. Equal values may be shown once. Read-outs that look alike come from different tables or passages of the source.

Tests used:
[1] = for log k′w: pH 7.4
[2] = physchem; settings: pH 7.4
[3] = Reference logDoct at pH 7.4: literature shake-flask or countercurrent data, shake-vial and pH-metric determinations, averaged
[4] = Shake-vial logDoct, Procedure A (octanol / MOPS buffer); assay type: physicochemical; settings: concentration decreased from 1.5 to 0.1 mg, 50:2 octanol:buffer
Excerpt: (§1) The vials were shaken at least overnight.

[5] = Semi-automated shake-vial logDoct, Procedure B (1:1 n-octanol / phosphate buffer pH 7.4); assay type: physicochemical; settings: duplicate determinations
Excerpt: as §1

[6] = cited from earlier work
[7] = Table 1, capacity factor extrapolated to 0% methanol, average of three to five determinations
[8] = Table 1, average of own shake-vial/potentiometric determinations and literature references
[9] = Table 1, own shake-vial (Procedure A/B) and/or potentiometric determinations only
[10] = Table 1, average of literature references only, pH 7.4

Compound	log k′w [1, 7]	chromatographic logD [2]	logDoct [3, 9]	logDoct [6, 10]	further results
CNS(=O)(=O)Cc1ccc2[nH]cc(CCN(C)C)c2c1 [Sumatriptan]	−0.54	-0.4	–	–	logDoct [3, 8]: −1.00
CN1CCN(CC(=O)N2c3ccccc3C(=O)Nc3cccnc32)CC1 [Pirenzepine]	−0.15	0.04	−0.61	–	–
COc1ccc2c(c1)N(C[C@H](C)CN(C)C)c1ccccc1S2 [Methotrimeprazine]	2.10	2.57	2.77	–	–
Cc1ncc(-c2csc(N=C(N)N)n2)[nH]1 [Zaltidine]	0.53	0.8	0.74	–	–
N=C(N)NCC1COc2ccccc2O1 (stereo not shown) [guanoxan]	–	-0.3	–	–	logDoct [4]: −1.6 to −1.0; logDoct [5]: −0.1 and −0.3; logDoct ([6]; literature value (ref. 22)): −0.83
CNC(=C[N+](=O)[O-])NCCSCc1ccc(CN(C)C)o1 [Ranitidine]	–	-0.5	−0.29	–	–
CN/C(=N/CCSCc1nc[nH]c1C)NC#N [Cimetidine]	0.17	–	0.35	–	–
Oc1ncnc2[nH]ncc12 [Allopurinol]	−0.27	-0.1	–	–	logDoct [3, 8]: −0.44
COc1ccc([C@@H]2Sc3ccccc3N(CCN(C)C)C(=O)[C@@H]2OC(C)=O)cc1 [Diltiazem]	1.59	2	2.06	–	–
c1ccc(-c2ccc(C(c3ccccc3)n3ccnc3)cc2)cc1 (stereo not shown) [Bifonazole]	4.33	5.09	–	4.77	–
Cc1ncc([N+](=O)[O-])n1CCO [Metronidazole]	−0.08	0.12	–	−0.02	–
NC(=O)N/N=C/c1ccc([N+](=O)[O-])o1 [Nitrofurazone]	0.29	0.53	–	0.23	–
CCCCNc1ccc(C(=O)OCCN(C)C)cc1 [Tetracaine]	1.70	2.12	–	2.29	Res (logDoct − ElogDoct) ([1]; Table 1): 0.17
O=[N+]([O-])c1ccc(/C=N/O)o1 [Nifuroxime]	1.14	1.49	–	1.28	–
CC(=O)CCCCn1c(=O)c2c(ncn2C)n(C)c1=O [Pentoxifylline]	0.03	0.24	–	0.29	–
CCN(CC)CCNC(=O)c1cc(S(C)(=O)=O)ccc1OC [Tiapride]	−0.58	-0.45	−0.90	–	–
COC(=O)[C@H]1[C@@H](OC(=O)c2ccccc2)C[C@@H]2CC[C@H]1N2C [Cocaine]	–	0.48	–	1.05	Res (logDoct − ElogDoct) ([1]; Table 1): 0.57
O=c1n(CCCN2CCN(c3cccc(Cl)c3)CC2)nc2ccccn12 [Trazodone]	2.45	2.97	2.54	–	–
CNC(=NCCSCc1csc(N=C(N)N)n1)NC#N [Tiotidine]	0.57	0.85	0.57	–	–
Clc1cccc(Cl)c1N=C1NCCN1 [Clonidine]	0.07	0.29	–	0.62	–
NS(=O)(=O)c1cc2c(cc1Cl)NC(C(Cl)Cl)NS2(=O)=O (stereo not shown) [Trichlormethiazide]	0.26	0.5	0.43	–	–
NS(=O)(=O)c1cc2c(cc1Cl)NC(C1CC3C=CC1C3)NS2(=O)=O (stereo not shown) [Cyclothiazide]	2.15	2.63	2.09	–	–
CC(C)N(CCC(C(N)=O)(c1ccccc1)c1ccccn1)C(C)C (stereo not shown) [Disopyramide]	−1.21	-1.15	−0.66	–	–
O=C1CN=C(c2ccccn2)c2cc(Br)ccc2N1 [Bromazepam]	1.04	1.38	–	1.65	Res (logDoct − ElogDoct) ([1]; Table 1): 0.27
CN1CCCC1c1cccnc1 (stereo not shown) [Nicotine]	–	0.23	0.40	–	log k′w [1]: 0.02
